Where a name gives a salt, the structure may show the parent alone.
Columns and labels:
[1] = Metabolic stability: incubation with liver microsomes and NADPH-generating system, LC-MS analysis; type: in vitro ADME; conditions: compound 5 μM; microsomes 1 mg/ml; NADPH-generating system; 60 minutes at 37 degrees Celsius
Protocol: Sub-cellular tissue preparations were made according to Gorrod et al. (Xenobiotica 5: 453-462, 1975) by centrifugal separation after mechanical homogenization of tissue. Liver tissue was rinsed in ice-cold 0.1 M Tris-HCl (pH 7.4) buffer to wash excess blood. Tissue was then blotted dry, weighed and chopped coarsely using surgical scissors. The tissue pieces were homogenized in 3 volumes of ice-cold 0.1 M phosphate buffer (pH 7.4).
Tissue homogenates were centrifuged at 9000×g for 20 minutes at 4° C. The resulting supernatant was stored at −80° C. and is designated ‘S9’.
The S9 fraction can be further centrifuged at 100.000×g for 60 minutes (4° C.). The resulting supernatant was carefully aspirated, aliquoted and designated ‘cytosol’. The pellet was re-suspended in 0.1 M phosphate buffer (pH 7.4) in a final volume of 1 ml per 0.5 g original tissue weight and designated ‘microsomes’.
All sub-cellular fractions were aliquoted, immediately frozen in liquid nitrogen and stored at −80° C. until use.
For the samples to be tested, the incubation mixture contained PBS (0.1M), compound (5 μM), microsomes (1 mg/ml) and a NADPH-generating system (0.8 mM glucose-6-phosphate, 0.8 mM magnesium chloride and 0.8 Units of glucose-6-phosphate dehydrogenase). Control samples contained the same material but the microsomes were replaced by heat inactivated (10 minutes at 95 degrees Celsius) microsomes. Recovery of the compounds in the control samples was always 100%.
The mixtures were preincubated for 5 minutes at 37 degrees Celsius. The reaction was started at time point zero (t=0) by addition of 0.8 mM NADP and the samples were incubated for 60 minutes (t=60). The reaction was terminated by the addition of 2 volumes of DMSO. Then the samples were centrifuged for 10 minutes at 900×g and the supernatants were stored at room temperature for no longer as 24 hours before analysis. All incubations were performed in duplo. Analysis of the supernatants was performed with LC-MS analysis. Elution of the samples was performed on a Xterra MS C18 (50×4.6 mm, 5 μm, Waters, US). An Alliance 2790 (Supplier: Waters, US) HPLC system was used. Elution was with buffer A (25 mM ammoniumacetate (pH 5.2) in H2O/acetonitrile (95/5)), solvent B being acetonitrile and solvent C methanol at a flow rate of 2.4 ml/min. The gradient employed was increasing the organic phase concentration from 0% over 50% B and 50% C in 5 min up to 100% B in 1 minute in a linear fashion and organic phase concentration was kept stationary for an additional 1.5 minutes. Total injection volume of the samples was 25 μl.
A Quatro triple quadrupole mass spectrometer fitted with and ESP source was used as detector. The source and the desolvation temperature were set at 120 and 350° C. respectively and nitrogen was used as nebuliser and drying gas. Data were acquired in positive scan mode (single ion reaction). Cone voltage was set at 10 V and the dwell time was 1 second.
Metabolic stability was expressed as % metabolism of the compound after 60 minutes (equation given as Example) of incubation in the presence of active microsomes E(act))

h5-HT4b = target: T1, h5-HT4b (Homo sapiens, UniProt Q13639); assay: 5HT4 antagonism: [3H]GR113808 binding to membranes of h5-HT4b-HEK 293 clone 9 cells; conditions: displacement of [3H]GR113808 0.1 nM; h5-HT4b-HEK 293 membranes; 30 min at 25° C.; read-out: pIC50 (5HT4 antagonistic data) (converted)
T1 construct: expressed in transfected cells; host or cells: HEK 293 (clone 9), membrane preparation
Protocol: h5-HT4b-HEK 293 clone 9 cells were cultured in 150 mm Petri dishes and washed twice with cold PBS. The cells were then scraped from the plates and suspended in 50 mM Tris-HCl buffer, pH 7.4 and harvested by centrifugation at 23,500 rpm for 10 minutes. The pellet was resuspended in 5 mM Tris-HCl, pH 7.4 and homogenized with an Ultra Turrax homogenizer. The membranes were collected by centrifugation at 30,000 rpm for 20 min, resuspended in 50 mM Tris-HCl pH 7.4 and stored at −80° C. For the experiment, assay mixtures (0.5 ml) contained 50 μl of the tritiated ligand (5-HT4 antagonist [^3H]GR113808 0.1 nM) and 0.4 ml membrane preparation (15 μg protein/ml). 50 μl of 10% DMSO was added for total binding. 50 μl of 1 μM of (+)-trans-(1-butyl-3-hydroxy-4-piperidinyl)methyl 8-amino-7-chloro-2,3-dihydro-1,4-benzodioxin-5-carboxylate (a proprietary 5HT4 agonist of Janssen Pharmaceutica) was added for determination of non-specific binding.
The [^3H]GR113808 assay buffer was 50 mM HEPES-NaOH, pH 7.4. The mixtures were incubated for 30 min at 25° C. The incubation was terminated by filtration over a Unifilter 96 GF/B presoaked in 0.1% polyethylenimine, followed by six washing steps with 50 mM HEPES-NaOH, pH 7.4.

T1 sequence (Q13639 whole entry): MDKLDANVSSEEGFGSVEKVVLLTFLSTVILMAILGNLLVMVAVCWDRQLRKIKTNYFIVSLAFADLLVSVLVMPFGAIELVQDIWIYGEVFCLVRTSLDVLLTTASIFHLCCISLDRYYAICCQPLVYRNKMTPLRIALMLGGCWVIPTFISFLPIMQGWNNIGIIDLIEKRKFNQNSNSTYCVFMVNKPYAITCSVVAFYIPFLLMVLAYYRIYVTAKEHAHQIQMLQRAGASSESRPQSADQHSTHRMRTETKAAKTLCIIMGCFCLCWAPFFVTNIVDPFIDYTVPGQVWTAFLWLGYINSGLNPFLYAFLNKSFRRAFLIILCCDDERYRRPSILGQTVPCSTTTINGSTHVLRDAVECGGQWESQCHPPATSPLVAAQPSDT

Structure (SMILES)	melting point	% metabolised compound after 60 minutes [1]	IC50 (h5-HT4b)
O=C(NCC1CCN(CCCc2nnn[nH]2)CC1O)c1cc(Cl)cc2c1OCCCO2 (centres unmarked) (as salt: HCl) [Compound 7]	212 °C		
Cc1cc2c(c(C(=O)NC[C@@H]3CCN(CCCc4cc(O)no4)C[C@H]3O)c1)OCCCO2 (hydrate or solvate) [Compound 23]	> 93 °C		
Cc1cc2c(c(C(=O)NCC3CCN(CCCN4CC(=O)NC4=O)CC3O)c1)OCCCO2 (centres unmarked) (hydrate or solvate) [Compound 24]	135 °C		
O=C1CN(CCCN2CC[C@@H](CNC(=O)c3cc(Cl)cc4c3OCCCO4)[C@H](O)C2)C(=O)N1 (relative stereo) [Compound 21]		30.5%	6.46 nM
CO[C@@H]1CN(CCCCn2ccc(O)n2)CC[C@H]1CNC(=O)c1cc(Cl)c(Br)c2c1OCCCO2 (relative stereo) [Compound 30]			1 nM
COc1ccc(C(=O)NC[C@@H]2CCN(CCCCn3ccc(O)n3)C[C@H]2O)c2c1OCCO2 [Compound 1]		5%	2.4 nM
Cc1cc2c(c(C(=O)NC[C@@H]3CCN(CCCc4cc(O)no4)C[C@H]3O)c1)OCCO2 [Compound 2]		0%	8.71 nM
N#Cc1cc2c(c(C(=O)NC[C@@H]3CCN(CCCc4cc(O)no4)C[C@H]3O)c1)OCCO2 [Compound 3]			148 nM
COc1ccc(C(=O)NCC2CCN(CCCCn3ccc(O)n3)CC2OC)c2c1OCCO2 (centres unmarked) [Compound 4]		11%	11.5 nM
COc1ccc(C(=O)NC[C@@H]2CCN(CCCc3cc(O)no3)C[C@H]2O)c2c1OCCO2 [Compound 5]		4%	123 nM
O=C(NC[C@@H]1CCN(CCCc2cc(O)no2)C[C@H]1O)c1cc(F)cc2c1OCCO2 [Compound 6]		8%	2750 nM
O=C(NCC1CCN(CCCc2nnn[nH]2)CC1O)c1cc(Cl)cc2c1OCCCO2 (centres unmarked) [Compound 7]		5%	31.6 nM
O=C(NC[C@@H]1CCN(CCCCc2nnn[nH]2)C[C@H]1O)c1cc(Cl)cc2c1OCCCO2 [Compound 8]		2.5%	7.24 nM
Cc1ccc(C(=O)NC[C@@H]2CCN(CCCc3nnn[nH]3)C[C@H]2O)c2c1OCCCO2 [Compound 9]		3%	7.94 nM
Cc1ccc(C(=O)NC[C@@H]2CCN(CCCCc3nnn[nH]3)C[C@H]2O)c2c1OCCCO2 [Compound 10]		2%	5.62 nM
O=C(NCC1CCN(CCCCn2ccc(O)n2)CC1O)c1cc(Cl)cc2c1OCCCO2 (centres unmarked) [Compound 11]		39%	1.26 nM
Cc1cc2c(c(C(=O)NC[C@@H]3CCN(CCCCc4nnn[nH]4)C[C@H]3O)c1)OCCCO2 [Compound 13]		2%	13.2 nM
Cc1cc2c(c(C(=O)NC[C@@H]3CCN(CCCCn4ccc(O)n4)C[C@H]3O)c1)OCCCO2 [Compound 15]		26%	1.91 nM
O=C(NC[C@@H]1CCN(CCCn2nn[nH]c2=O)C[C@H]1O)c1cc(Cl)cc2c1OCCCO2 [Compound 16]		0.5%	18.2 nM
Cc1cc2c(c(C(=O)NC[C@@H]3CCN(CCc4nnn[nH]4)C[C@H]3O)c1)OCCCO2 [Compound 19]	> 125 °C	1%	46.8 nM

Structure (SMILES)	melting point	% metabolised compound after 60 minutes [1]	IC50 (h5-HT4b)
O=C(NC[C@@H]1CCN(CCc2nnn[nH]2)C[C@H]1O)c1cc(Cl)cc2c1OCCCO2 [Compound 20]		0%	64.6 nM
Cc1ccc(C(=O)NC[C@@H]2CCN(CCc3nnn[nH]3)C[C@H]2O)c2c1OCCCO2 [Compound 22]		4.5%	9.55 nM
Cc1cc2c(c(C(=O)NC[C@@H]3CCN(CCCc4cc(O)no4)C[C@H]3O)c1)OCCCO2 [Compound 23]		6%	16.6 nM
Cc1cc2c(c(C(=O)NCC3CCN(CCCN4CC(=O)NC4=O)CC3O)c1)OCCCO2 (centres unmarked) [Compound 24]		16%	7.08 nM
COC1CN(CCCCn2ccc(O)n2)CCC1CNC(=O)c1cc(C#N)cc2c1OCCCO2 (centres unmarked) [Compound 25]		55%	33.9 nM
Cc1ccc(C(=O)NC[C@@H]2CCN(CCCc3cc(O)no3)C[C@H]2O)c2c1OCCCO2 [Compound 26]		3%	16.6 nM
O=C(NC[C@@H]1CCN(CCCc2cc(O)no2)C[C@H]1O)c1cc(Cl)cc2c1OCCCO2 [Compound 27]		12%	10.2 nM
O=C(NCC1CCN(CCCCn2ccc(O)n2)CC1O)c1cc(Cl)c(Br)c2c1OCCCO2 (centres unmarked) [Compound 28]		53%	1.17 nM
O=C(NCC1CCN(CCCCn2ccc(O)n2)CC1O)c1cc(Cl)c(Cl)c2c1OCCCO2 (centres unmarked) [Compound 29]		50%	0.871 nM
Cc1cc2c(c(C(=O)NC[C@@H]3CCN(CCCN4C(=O)CNC4=O)C[C@H]3O)c1)OCCCO2 [Compound 31]		12%	1.48 nM
COC1CN(CCCCn2ccc(O)n2)CCC1CNC(=O)c1cc(Cl)c(Cl)c2c1OCCCO2 (centres unmarked) [Compound 32]			0.759 nM
N#Cc1cc2c(c(C(=O)NC[C@@H]3CCN(CCCCn4ccc(O)n4)C[C@H]3O)c1)OCCCO2 [Compound 34]		11%	3.89 nM
COc1ccc(C(=O)NC[C@@H]2CCN(CCCc3cc(O)no3)C[C@H]2O)c2c1OCCCO2 [Compound 35]			83.2 nM
O=C(NC[C@@H]1CCN(CCCc2cc(O)no2)C[C@H]1O)c1cc(F)cc2c1OCCCO2 [Compound 36]		10%	14.1 nM
O=C(NC[C@@H]1CCN(CCCc2cc(O)no2)C[C@H]1O)c1cccc2c1OCCCO2 [Compound 37]		1%	17.8 nM
Cc1cc2c(c(C(=O)NC[C@@H]3CCN(CCCCN4CCOCC4)C[C@H]3O)c1)OCCCO2 [Compound 38]		18%	1.05 nM
COC1CN(CCCc2cc(O)no2)CCC1CNC(=O)c1cc(Cl)cc2c1OCCCO2 (centres unmarked) [Compound 39]		17%	22.9 nM
COc1ccc(C(=O)NC[C@@H]2CCN(CCCCN3CCOCC3)C[C@H]2O)c2c1OCCCO2 [Compound 42]		0%	4.07 nM
COc1ccc(C(=O)NCC2CCN(CCCc3cc(O)no3)CC2OC)c2c1OCCCO2 (centres unmarked) [Compound 44]		3%	372 nM
COC1CN(CCCc2cc(O)no2)CCC1CNC(=O)c1cc(C)cc2c1OCCCO2 (centres unmarked) [Compound 45]		6%	132 nM
